Laboratory results: paper PMC10350919 (Journal of Medicinal Chemistry, 2023)

Columns and labels:
[1] = system: E. faecium ATCC 700221; assay: Neutropenic thigh infection mouse model with VanA E. faecium; type: in vivo; settings: compound 17 4 doses at 100 mg/kg i.p., linezolid 4 doses at 50 mg/kg i.p.
[2] = system: M. tuberculosis H37Ra; type: cell-based, Mycobacterium tuberculosis
[3] = system: M. bovis BCG Pasteur ATCC 35734; type: cell-based

Molecule	weight loss compared to untreated control mice [1]	survival (endpoint: 15% of starting weight lost) ([1]; neutropenic mice, Kaplan–Meier, *P < 0.05 Gehan–Breslow–Wilcoxon test)	MIC, M. tuberculosis H37Ra [2]	MIC, M. bovis BCG Pasteur ATCC 35734 [3]
CC(=O)NC[C@H]1CN(c2ccc(N3CCOCC3)c(F)c2)C(=O)O1 [linezolid]	reduced weight loss	significant survival benefit		
complestatin			>64 µg/mL	64 µg/mL
